Experimental data published in patent publication US20100137449A1, “SUBSTITUTED 1,3-CYCLOPENTADIONE MULTI-TARGET PROTEIN KINASE MODULATORS OF CANCER, ANGIOGENESIS AND THE INFLAMMATORY PATHWAYS ASSOCIATED THEREWITH” (METAPROTEOMICS, LLC, priority 2007, published 2010).

Tests used:
Experiment in all cases: KinaseProfiler Assay
[1] = target: Flt4(h) (Homo sapiens, UniProt P35916)
[2] = target: GSK3α(h) (Homo sapiens, UniProt P49840)
[3] = target: T1, NEK2(h) (Homo sapiens, UniProt P51955)
T1 sequence (P51955 1-445): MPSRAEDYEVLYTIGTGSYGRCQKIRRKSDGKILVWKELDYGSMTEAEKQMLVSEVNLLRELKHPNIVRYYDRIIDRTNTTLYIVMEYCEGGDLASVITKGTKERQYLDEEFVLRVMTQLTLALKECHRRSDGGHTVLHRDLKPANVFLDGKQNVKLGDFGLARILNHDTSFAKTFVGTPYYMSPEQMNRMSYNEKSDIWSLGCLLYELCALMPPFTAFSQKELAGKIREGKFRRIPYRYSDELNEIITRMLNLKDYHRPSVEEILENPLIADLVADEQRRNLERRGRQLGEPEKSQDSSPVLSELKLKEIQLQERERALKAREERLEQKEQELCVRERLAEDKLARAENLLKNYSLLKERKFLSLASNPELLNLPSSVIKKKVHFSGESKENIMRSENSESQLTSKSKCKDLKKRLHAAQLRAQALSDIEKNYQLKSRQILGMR

[4] = target: T2, NEK3(h) (Homo sapiens, UniProt P51956)
T2 sequence (P51956 1-506): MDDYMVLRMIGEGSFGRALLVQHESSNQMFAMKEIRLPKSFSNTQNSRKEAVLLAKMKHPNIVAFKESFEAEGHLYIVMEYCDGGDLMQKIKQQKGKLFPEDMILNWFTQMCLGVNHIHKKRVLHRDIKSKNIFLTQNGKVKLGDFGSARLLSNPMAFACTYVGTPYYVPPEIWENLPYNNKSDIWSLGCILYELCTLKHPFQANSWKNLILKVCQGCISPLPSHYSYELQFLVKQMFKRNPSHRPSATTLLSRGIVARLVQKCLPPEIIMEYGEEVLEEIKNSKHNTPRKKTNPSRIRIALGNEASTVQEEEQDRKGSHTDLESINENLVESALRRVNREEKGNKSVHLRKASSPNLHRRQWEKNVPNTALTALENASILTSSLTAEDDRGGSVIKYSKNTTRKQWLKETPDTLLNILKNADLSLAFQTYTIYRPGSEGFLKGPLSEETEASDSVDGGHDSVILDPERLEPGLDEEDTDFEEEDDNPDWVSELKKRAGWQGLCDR

[5] = target: T3, NLK(h) (Homo sapiens, UniProt Q9UBE8)
T3 sequence (Q9UBE8 1-527): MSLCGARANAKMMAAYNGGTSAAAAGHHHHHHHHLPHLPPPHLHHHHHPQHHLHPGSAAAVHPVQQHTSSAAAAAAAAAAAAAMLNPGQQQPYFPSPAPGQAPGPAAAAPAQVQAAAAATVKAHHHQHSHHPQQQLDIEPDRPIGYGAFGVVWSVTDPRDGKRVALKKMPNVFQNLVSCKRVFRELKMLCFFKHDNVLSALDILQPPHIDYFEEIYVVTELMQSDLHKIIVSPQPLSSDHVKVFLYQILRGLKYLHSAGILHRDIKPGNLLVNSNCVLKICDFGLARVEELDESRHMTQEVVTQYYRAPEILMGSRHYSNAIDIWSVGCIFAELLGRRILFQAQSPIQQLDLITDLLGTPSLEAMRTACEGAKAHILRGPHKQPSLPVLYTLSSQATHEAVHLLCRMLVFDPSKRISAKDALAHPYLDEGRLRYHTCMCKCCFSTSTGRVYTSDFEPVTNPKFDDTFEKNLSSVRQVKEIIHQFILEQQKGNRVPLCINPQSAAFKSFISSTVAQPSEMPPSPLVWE

[6] = target: PAK5(h) (Homo sapiens, UniProt Q9P286)
[7] = target: T4, SGK(h) (Homo sapiens, UniProt O00141)
T4 sequence (O00141 1-431): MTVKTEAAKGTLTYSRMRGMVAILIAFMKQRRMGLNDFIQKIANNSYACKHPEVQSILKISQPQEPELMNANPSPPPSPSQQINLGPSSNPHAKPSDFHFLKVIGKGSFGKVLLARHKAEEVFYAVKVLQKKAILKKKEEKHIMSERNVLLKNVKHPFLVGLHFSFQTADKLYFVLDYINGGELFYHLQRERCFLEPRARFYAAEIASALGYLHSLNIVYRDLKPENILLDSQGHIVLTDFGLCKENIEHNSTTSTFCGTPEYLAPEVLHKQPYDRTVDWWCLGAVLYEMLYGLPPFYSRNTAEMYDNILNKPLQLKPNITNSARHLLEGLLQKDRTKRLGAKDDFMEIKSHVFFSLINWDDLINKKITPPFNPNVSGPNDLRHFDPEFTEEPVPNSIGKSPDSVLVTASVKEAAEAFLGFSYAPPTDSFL

Sequence of GSK3α(h) (P49840 whole entry): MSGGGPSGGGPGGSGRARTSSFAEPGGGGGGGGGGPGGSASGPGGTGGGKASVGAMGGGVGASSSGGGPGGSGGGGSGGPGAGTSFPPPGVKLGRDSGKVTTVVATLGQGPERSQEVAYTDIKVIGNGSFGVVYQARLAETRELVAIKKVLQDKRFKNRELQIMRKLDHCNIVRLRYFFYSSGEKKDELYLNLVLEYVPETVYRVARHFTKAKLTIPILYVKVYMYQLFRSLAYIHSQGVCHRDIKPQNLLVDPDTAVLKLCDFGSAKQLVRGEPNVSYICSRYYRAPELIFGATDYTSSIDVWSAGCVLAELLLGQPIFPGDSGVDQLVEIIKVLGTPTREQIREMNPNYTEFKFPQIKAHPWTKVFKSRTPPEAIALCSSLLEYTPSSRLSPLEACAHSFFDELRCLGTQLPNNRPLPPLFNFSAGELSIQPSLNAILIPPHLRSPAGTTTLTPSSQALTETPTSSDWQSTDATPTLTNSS
Sequence of PAK5(h) (Q9P286 whole entry): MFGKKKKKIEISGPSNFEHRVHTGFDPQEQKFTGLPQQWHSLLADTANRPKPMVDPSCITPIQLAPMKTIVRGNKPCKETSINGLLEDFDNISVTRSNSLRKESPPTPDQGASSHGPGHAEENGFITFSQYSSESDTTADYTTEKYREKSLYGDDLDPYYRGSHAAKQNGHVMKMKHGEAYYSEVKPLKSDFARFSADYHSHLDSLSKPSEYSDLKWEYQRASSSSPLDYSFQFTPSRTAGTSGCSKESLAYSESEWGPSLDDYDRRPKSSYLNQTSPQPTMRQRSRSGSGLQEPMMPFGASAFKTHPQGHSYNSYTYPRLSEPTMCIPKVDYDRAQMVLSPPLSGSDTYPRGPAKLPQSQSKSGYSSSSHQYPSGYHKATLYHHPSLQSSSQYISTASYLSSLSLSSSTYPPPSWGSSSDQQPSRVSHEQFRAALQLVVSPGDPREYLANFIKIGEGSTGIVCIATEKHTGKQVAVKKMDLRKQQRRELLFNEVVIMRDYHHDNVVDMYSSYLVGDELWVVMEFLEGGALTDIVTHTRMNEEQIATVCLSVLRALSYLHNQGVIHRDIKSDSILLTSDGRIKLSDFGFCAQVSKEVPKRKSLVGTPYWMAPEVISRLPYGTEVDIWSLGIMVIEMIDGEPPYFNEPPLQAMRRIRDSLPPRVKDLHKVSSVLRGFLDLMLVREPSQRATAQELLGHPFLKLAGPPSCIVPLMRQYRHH
Sequence of Flt4(h) (P35916 25-1363): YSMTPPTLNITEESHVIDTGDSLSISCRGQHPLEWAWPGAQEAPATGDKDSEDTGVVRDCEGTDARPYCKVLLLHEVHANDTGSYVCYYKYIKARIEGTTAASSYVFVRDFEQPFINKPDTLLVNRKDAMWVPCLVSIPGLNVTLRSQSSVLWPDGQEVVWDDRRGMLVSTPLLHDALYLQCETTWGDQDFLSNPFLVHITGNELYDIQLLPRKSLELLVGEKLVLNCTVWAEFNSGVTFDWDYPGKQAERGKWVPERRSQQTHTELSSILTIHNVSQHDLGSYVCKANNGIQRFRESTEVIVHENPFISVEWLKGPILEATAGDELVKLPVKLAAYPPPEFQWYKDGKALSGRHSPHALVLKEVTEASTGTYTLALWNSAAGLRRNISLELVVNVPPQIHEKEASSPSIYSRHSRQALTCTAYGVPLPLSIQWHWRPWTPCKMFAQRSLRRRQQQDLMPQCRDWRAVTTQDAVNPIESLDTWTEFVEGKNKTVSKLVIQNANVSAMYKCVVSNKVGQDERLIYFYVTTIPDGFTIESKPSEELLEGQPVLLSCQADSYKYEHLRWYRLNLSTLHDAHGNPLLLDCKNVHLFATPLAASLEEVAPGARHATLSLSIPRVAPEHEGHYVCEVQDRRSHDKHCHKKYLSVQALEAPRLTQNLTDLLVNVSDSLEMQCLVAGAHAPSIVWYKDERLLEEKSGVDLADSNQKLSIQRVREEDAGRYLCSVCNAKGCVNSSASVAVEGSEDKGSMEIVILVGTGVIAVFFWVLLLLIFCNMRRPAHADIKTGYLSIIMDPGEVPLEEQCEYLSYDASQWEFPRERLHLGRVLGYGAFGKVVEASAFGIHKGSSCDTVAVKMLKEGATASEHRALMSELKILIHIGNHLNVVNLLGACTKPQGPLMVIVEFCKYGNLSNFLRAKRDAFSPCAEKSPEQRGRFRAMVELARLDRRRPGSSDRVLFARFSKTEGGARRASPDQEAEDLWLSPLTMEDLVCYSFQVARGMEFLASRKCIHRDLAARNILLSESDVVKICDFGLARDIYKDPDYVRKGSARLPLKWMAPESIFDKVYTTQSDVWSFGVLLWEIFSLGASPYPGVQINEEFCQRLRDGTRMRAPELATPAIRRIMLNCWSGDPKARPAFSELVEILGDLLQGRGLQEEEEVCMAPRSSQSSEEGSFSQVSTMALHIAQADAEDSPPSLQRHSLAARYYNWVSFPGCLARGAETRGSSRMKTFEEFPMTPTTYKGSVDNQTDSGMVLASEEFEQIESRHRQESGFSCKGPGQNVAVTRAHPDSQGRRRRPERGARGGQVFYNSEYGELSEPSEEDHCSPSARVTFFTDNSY

## CC(C)CCC(=O)[C@]1(O)C(O)=C(C(=O)C(C)C)C(=O)[C@H]1CCC(C)C [TH2, tetrahydroiso-cohumulone]
[1]; 1 μg/ml
  kinase inhibition: 117% of control
[1]; 5 μg/ml
  kinase inhibition: 113% of control
[1]; 25 μg/ml
  kinase inhibition: 88% of control
[1]; 50 μg/ml
  kinase inhibition: 80% of control
[1]; 100 μg/ml
  kinase inhibition: 55% of control
[2]; 1 μg/ml
  kinase inhibition: 94% of control
[2]; 5 μg/ml
  kinase inhibition: 92% of control
[2]; 25 μg/ml
  kinase inhibition: 61% of control
[2]; 50 μg/ml
  kinase inhibition: 51% of control
[2]; 100 μg/ml
  kinase inhibition: 43% of control
[3]; 1 μg/ml
  kinase inhibition: 106% of control
[3]; 5 μg/ml
  kinase inhibition: 109% of control
[3]; 25 μg/ml
  kinase inhibition: 105% of control
[3]; 50 μg/ml
  kinase inhibition: 102% of control
[3]; 100 μg/ml
  kinase inhibition: 72% of control
[4]; 1 μg/ml
  kinase inhibition: 99% of control
[4]; 5 μg/ml
  kinase inhibition: 102% of control
[4]; 25 μg/ml
  kinase inhibition: 97% of control
[4]; 50 μg/ml
  kinase inhibition: 94% of control
[4]; 100 μg/ml
  kinase inhibition: 92% of control
[5]; 1 μg/ml
  kinase inhibition: 105% of control
[5]; 5 μg/ml
  kinase inhibition: 104% of control
[5]; 25 μg/ml
  kinase inhibition: 98% of control
[5]; 50 μg/ml
  kinase inhibition: 96% of control
[5]; 100 μg/ml
  kinase inhibition: 85% of control
[6]; 1 μg/ml
  kinase inhibition: 106% of control
[6]; 5 μg/ml
  kinase inhibition: 105% of control
[6]; 25 μg/ml
  kinase inhibition: 91% of control
[6]; 50 μg/ml
  kinase inhibition: 93% of control
[6]; 100 μg/ml
  kinase inhibition: 61% of control
[7]; 1 μg/ml
  kinase inhibition: 106% of control
[7]; 5 μg/ml
  kinase inhibition: 96% of control
[7]; 25 μg/ml
  kinase inhibition: 97% of control
[7]; 50 μg/ml
  kinase inhibition: 92% of control
[7]; 100 μg/ml
  kinase inhibition: 76% of control
